Reference: publication PMC6668346 (Journal of medicinal chemistry, 2018)
“And” between values parts separate entries of the source, which are not always exact repeats. Identical values can stand only once.

biological target: T1, human LAT1 (Homo sapiens, UniProt Q01650); experiment: not given; format: cell-based; conditions: 200 μM, 3 min; average of seven experiments
T1 sequence (Q01650 whole entry): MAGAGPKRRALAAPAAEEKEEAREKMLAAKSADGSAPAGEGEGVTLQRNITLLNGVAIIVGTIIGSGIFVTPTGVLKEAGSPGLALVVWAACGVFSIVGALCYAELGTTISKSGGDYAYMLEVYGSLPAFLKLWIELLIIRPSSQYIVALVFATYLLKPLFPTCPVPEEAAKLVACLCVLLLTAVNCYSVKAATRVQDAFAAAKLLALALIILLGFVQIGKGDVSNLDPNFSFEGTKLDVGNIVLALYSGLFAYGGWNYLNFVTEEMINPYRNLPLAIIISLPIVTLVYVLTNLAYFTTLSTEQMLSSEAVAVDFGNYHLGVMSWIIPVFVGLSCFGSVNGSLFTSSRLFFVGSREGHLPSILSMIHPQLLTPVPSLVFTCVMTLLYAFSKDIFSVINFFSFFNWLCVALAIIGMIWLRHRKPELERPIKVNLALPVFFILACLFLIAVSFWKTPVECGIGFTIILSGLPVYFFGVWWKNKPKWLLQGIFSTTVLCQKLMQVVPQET
T1 sequence (P08195 102-630 partner): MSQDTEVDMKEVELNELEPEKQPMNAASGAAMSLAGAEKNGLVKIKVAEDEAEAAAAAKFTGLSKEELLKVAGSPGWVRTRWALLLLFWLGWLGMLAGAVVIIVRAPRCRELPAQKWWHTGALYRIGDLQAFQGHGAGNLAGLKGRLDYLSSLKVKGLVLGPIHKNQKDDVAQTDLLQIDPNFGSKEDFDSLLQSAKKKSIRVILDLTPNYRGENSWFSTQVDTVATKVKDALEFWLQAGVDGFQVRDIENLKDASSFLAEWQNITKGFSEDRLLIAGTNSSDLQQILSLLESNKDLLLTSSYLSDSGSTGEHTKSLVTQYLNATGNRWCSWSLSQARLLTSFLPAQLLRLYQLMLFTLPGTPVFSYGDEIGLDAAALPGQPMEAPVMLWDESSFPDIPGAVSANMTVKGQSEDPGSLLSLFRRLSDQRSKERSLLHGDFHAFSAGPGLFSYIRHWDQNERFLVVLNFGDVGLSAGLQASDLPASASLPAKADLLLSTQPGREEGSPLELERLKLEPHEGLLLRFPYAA

| efflux rate of [3H]-gabapentin | Compound |
| --- | --- |
| 2.7 fmol/min and 2.7 ± 0.3 fmol/min | N[C@@H](Cc1ccccc1)C(=O)O [Compound 50, L-phenylalanine, reference compound] |

same assay, conditions: based on trans-stimulation assay

| LAT1 substrate activity (in words) | Compound |
| --- | --- |
| substrates of LAT1 | CC(C)(C)OC(=O)c1cccc(C[C@H](N)C(=O)O)c1 [Compound 81] |
| LAT1 substrates | NCc1cccc(C[C@H](N)C(=O)O)c1 [Compound 74] |
| nonsubstrates | N[C@@H](Cc1cccc(CC(=O)O)c1)C(=O)O [Compound 84] |
| substrates | N[C@@H](Cc1cn(Cc2ccccc2)cn1)C(=O)O [Compound 59, benzyl histidine] |
| LAT1 substrates | N[C@@H](Cc1cccc(C(=O)O)c1)C(=O)O [Compound 83] |
| substrates of LAT1 | N[C@@H](Cc1cccc(C(=O)OCCO)c1)C(=O)O [Compound 82] |
| potentially not a substrate | COC(=O)c1cccc(C[C@@H](N)C(=O)O)c1 [Compound 79-D] |

Further lines, the compound ahead of its results:

| Compound | LAT1 substrate activity (in words) |
| --- | --- |
| NCCCC[C@H](N)C(=O)O [Compound 55, L-Lys, reference compound] | none of which were LAT1 substrates |
| N[C@@H](CCC(=O)O)C(=O)O [Compound 57, L-Glu, reference compound] | none of which were LAT1 substrates |
| NC(Cc1ccccc1)(Cc1ccccc1)C(=O)O [Compound 93] | inactive |
| CC(N)(Cc1ccccc1)C(=O)O (stereo in doubt) [Compound 92-D, α-methyl phenylalanine] | substrates |
| CSCC[C@@](N)(Cc1ccccc1)C(=O)O [Compound 98-D] | lost all activity |
| N[C@@](Cc1ccccc1)(Cc1c[nH]cn1)C(=O)O [Compound 107] | inactive |
| COC(=O)c1cc(C)cc(C[C@H](N)C(=O)O)c1 [Compound 63] | lost activity relative to their parent compounds |
| Cc1cc(C[C@H](N)C(=O)O)cc(C(=O)O)c1 [Compound 64] | lost activity relative to their parent compounds |
| C[C@](N)(Cc1ccccc1)C(=O)O [Compound 92, α-methyl phenylalanine] | substrates |

biological target: T1, human LAT1; experiment: cis-inhibition assay: inhibition of [3H]-gabapentin uptake into HEK-hLAT1 cells; format: cell-based; conditions: L vs D isomer

| selectivity for the L isomers in cis-inhibition assay | Compound |
| --- | --- |
| > 20 fold | CC(C)[C@H](N)C(=O)O [Compound 49, L-Val] |
| > 20 fold | CC[C@H](C)[C@H](N)C(=O)O [Compound 47, L-Ile] |
| > 20 fold | N[C@@H](Cc1c[nH]cn1)C(=O)O [Compound 53, L-histidine] |

same assay, conditions: cis-inhibition

| LAT1 ligand potency / affinity (in words) | Compound |
| --- | --- |
| the most potent ligands | N[C@@H](Cc1cccc(-c2ccccc2)c1)C(=O)O [Compound 70] |
| the most potent ligands | N[C@@H](Cc1cccc(Cc2ccccc2)c1)C(=O)O [Compound 69] |

test system: LAT1; experiment: not given; conditions: Xenopus laevis oocytes; cited from earlier work

| Compound | Km |
| --- | --- |
| N[C@H](Cc1ccccc1)C(=O)O [Compound 50-D, D-Phe] | 121 µM |
| N[C@@H](Cc1ccccc1)C(=O)O [Compound 50, L-phenylalanine, reference compound] | 14.2 µM |
